As usually defined, the IC50 is the midpoint of a concentration-inhibition curve. Lower therefore signals greater potency in that assay.

One assay addresses T1, TNKS2 (Homo sapiens, UniProt Q9H2K2).
T1 sequence (Q9H2K2 1-1166): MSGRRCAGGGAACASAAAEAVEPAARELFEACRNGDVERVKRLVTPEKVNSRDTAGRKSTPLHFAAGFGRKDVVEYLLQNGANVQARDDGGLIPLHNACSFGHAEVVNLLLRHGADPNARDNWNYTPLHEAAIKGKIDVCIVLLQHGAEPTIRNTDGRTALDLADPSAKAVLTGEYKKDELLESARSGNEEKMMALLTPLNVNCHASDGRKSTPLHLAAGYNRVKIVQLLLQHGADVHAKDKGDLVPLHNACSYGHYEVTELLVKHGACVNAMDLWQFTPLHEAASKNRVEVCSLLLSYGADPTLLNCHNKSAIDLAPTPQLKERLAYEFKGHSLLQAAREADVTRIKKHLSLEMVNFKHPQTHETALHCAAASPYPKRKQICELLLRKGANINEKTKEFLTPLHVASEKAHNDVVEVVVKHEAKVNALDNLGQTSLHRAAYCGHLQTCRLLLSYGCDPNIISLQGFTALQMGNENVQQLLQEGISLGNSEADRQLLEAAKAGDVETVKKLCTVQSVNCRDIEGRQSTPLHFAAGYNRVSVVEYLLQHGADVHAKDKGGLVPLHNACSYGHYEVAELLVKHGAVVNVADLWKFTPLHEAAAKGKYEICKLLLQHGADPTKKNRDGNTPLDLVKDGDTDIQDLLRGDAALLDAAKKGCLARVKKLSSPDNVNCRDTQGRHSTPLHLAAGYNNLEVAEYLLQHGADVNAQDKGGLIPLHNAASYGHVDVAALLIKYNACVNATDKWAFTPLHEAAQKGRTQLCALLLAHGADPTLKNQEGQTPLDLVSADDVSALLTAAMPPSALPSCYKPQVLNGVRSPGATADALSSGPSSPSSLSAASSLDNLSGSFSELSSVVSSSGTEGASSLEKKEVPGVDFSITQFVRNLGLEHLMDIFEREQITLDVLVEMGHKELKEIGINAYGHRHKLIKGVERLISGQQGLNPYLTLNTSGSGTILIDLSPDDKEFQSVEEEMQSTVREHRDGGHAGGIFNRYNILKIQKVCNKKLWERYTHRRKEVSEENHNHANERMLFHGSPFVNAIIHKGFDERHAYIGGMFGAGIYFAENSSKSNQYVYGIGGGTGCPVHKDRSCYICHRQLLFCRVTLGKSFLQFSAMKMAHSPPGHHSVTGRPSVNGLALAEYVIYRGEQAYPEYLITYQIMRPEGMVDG
Briefly: Modified TNKS2 Assay 2 (auto-parsylation, [3H]-NAD+ SPA). The class given is biochemical. The following applies: 6 nM TNKS2, 96 well.

In assay [1] the test system is wildtype Wnt signaling cascade. Briefly: HEK293 TOP Assay (Super TopFlash luciferase reporter, Wnt-3a stimulated). The class given is cell-based. The following applies: Homo sapiens, HEK293, 16 h. The essentials:
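HEK293 cells stably carrying Super TopFlash (TOP) or FOP reporter, stimulated with recombinant human Wnt-3a (2500–5 ng/ml, two-fold steps). Both lines incubated in parallel with compound from 50 μM to 15 nM (3.16-fold) in CAFTY buffer pH 7.4 with 2 mM Ca2+ and 0.01% BSA; selectivity judged TOP vs FOP.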
Background: In a reporter assay the amount or activity of a reporter protein is the signal.

Where [2] appears, read: HEK293 TOP reporter cell line, Wnt-3a at EC50, 16 hours incubation, compound dilution series 50 μM to 15 nM.
Where [3] appears, read: HEK293 TOP reporter cells, Wnt3a at EC50, 16 hours, luciferase.

For the molecule `CNC(=O)c1ncoc1C(=O)Nc1ccc(NC(=O)c2ccc(F)cc2Cl)cc1` [Example 11, N^5-{4-[(2-chloro-4-fluorobenzoyl)amino]phenyl}-N^4-methyl-1,3-oxazole-4,5-dicarboxamide], the IC50 against TNKS2 is 910 nM; in assay [1] (setting [2]), 730 nM; in assay [1] (setting [3]), 730 nM.
As for `O=C(Nc1ccc(NC(=O)c2nc[nH]c2C(=O)NCCF)cc1)c1ccc(F)cc1Cl` [Example 173, N^4-{4-[(2-chloro-4-fluorobenzoyl)amino]phenyl}-N^5-(2-fluoroethyl)-1H-imidazole-4,5-dicarboxamide], the IC50 amounted to 50 nM against TNKS2 and 270 nM in assay [1] (setting [2]).
Consider `CCS(=N)(=O)c1ccc(C(=O)Nc2ccc(NC(=O)c3[nH]cnc3C(=O)NC)cc2)c(Cl)c1` (stereo not drawn) [Example 255, N^5-(4-{[2-chloro-4-(S-ethylsulfonimidoyl)benzoyl]amino}phenyl)-N^4-methyl-1H-imidazole-4,5-dicarboxamide], for which the figures for the half-inhibitory concentration (IC50) (on TNKS2; in assay [1] (setting [2])) were 640 nM and 1240 nM, respectively.
Taken in the same sequence, the figures for `CCS(=N)(=O)c1ccc(C(=O)Nc2ccc(NC(=O)c3[nH]cnc3C(=O)NCCN3CCCCC3)cc2)c(Cl)c1` (stereo not drawn) [Example 256, N^5-(4-{[2-chloro-4-(S-ethylsulfonimidoyl)benzoyl]amino}phenyl)-N^4-[2-(piperidin-1-yl)ethyl]-1H-imidazole-4,5-dicarboxamide] were 10 nM and 900 nM.
For `CNC(=O)c1nc[nH]c1C(=O)Nc1ccc(NC(=O)c2ccc(N(C)C)cc2Cl)cc1` [Example 4, N^5-(4-{[2-chloro-4-(dimethylamino)benzoyl]amino}phenyl)-N^4-methyl-1H-imidazole-4,5-dicarboxamide], the half-maximal inhibitory concentration (IC50) at TNKS2 was greater than 10000 nM; in assay [1] (setting [2]) it was 910 nM; in assay [1] (setting [3]) it was 910 nM.
Take `NC(=O)c1nc[nH]c1C(=O)Nc1ccc(NC(=O)c2ccc(F)cc2Cl)cc1` [Example 121]: the IC50 on TNKS2 worked out at 70 nM; in assay [1] (setting [2]) it was 270 nM.
Take `O=C(Nc1ccc(NC(=O)c2[nH]cnc2C(=O)NCC(F)(F)F)cc1)c1ccc(F)cc1Cl` [Example 30, N^4-{4-[(2-chloro-4-fluorobenzoyl)amino]phenyl}-N^5-(2,2,2-trifluoroethyl)-1H-imidazole-4,5-dicarboxamide]: the IC50 against TNKS2 was determined as 40 nM; in assay [1] (setting [2]), 190 nM; in assay [1] (setting [3]), 160 nM.
Take `CNC(=O)c1nc[nH]c1C(=O)Nc1ccc(NC(=O)c2ccc(C)cc2Cl)cc1` [Example 244, N^5-{4-[(2-chloro-4-methylbenzoyl)amino]phenyl}-N^4-methyl-1H-imidazole-4,5-dicarboxamide]: the values for the IC50 (at TNKS2; in assay [1] (setting [2])) were 90 nM and 170 nM, respectively.
For `CC1CCN(CCNC(=O)c2nc[nH]c2C(=O)Nc2ccc(NC(=O)c3ccc(F)cc3Cl)cc2)CC1` [Example 126, N^5-{4-[(2-chloro-4-fluorobenzoyl)amino]phenyl}-N^4-[2-(4-methylpiperidin-1-yl)ethyl]-1H-imidazole-4,5-dicarboxamide] the same measures were 7 nM and 40 nM.
Turning to `O=C(NCCN1CCCCC1)c1nc[nH]c1C(=O)Nc1ccc(NC(=O)c2c(F)cc(F)cc2Cl)cc1` [Example 119, N^5-{4-[(2-chloro-4,6-difluorobenzoyl)amino]phenyl}-N^4-[2-(piperidin-1-yl)ethyl]-1H-imidazole-4,5-dicarboxamide], the IC50 on TNKS2 is 5 nM; in assay [1] (setting [2]), 70 nM.
With `CCOc1ccc(C(=O)Nc2ccc(NC(=O)c3[nH]cnc3C(=O)NC)cc2)c(Cl)c1` [Example 250, N^5-{4-[(2-chloro-4-ethoxybenzoyl)amino]phenyl}-N^4-methyl-1H-imidazole-4,5-dicarboxamide], the IC50 stood at 220 nM on TNKS2 and 920 nM in assay [1] (setting [2]).
For `O=C(Nc1ccc(NC(=O)c2nc[nH]c2C(=O)NCCN2CCCC2)cc1)c1ccc(F)cc1` [Example 176, N^4-{4-[(4-fluorobenzoyl)amino]phenyl}-N^5-[2-(pyrrolidin-1-yl)ethyl]-1H-imidazole-4,5-dicarboxamide] the same measures were 60 nM and 340 nM.
Taken in the same sequence, the figures for `CC(C)(CN1CCOCC1)NC(=O)c1[nH]cnc1C(=O)Nc1ccc(NC(=O)c2ccc(F)cc2)cc1` [Example 180, N^4-{4-[(4-fluorobenzoyl)amino]phenyl}-N^5-[2-methyl-1-(morpholin-4-yl)propan-2-yl]-1H-imidazole-4,5-dicarboxamide] were 6900 nM and 5350 nM.
With `CNC(=O)c1nc[nH]c1C(=O)Nc1ccc(NC(=O)c2ccccc2C(F)F)cc1` [Example 241, N^5-(4-{[2-(difluoromethyl)benzoyl]amino}phenyl)-N^4-methyl-1H-imidazole-4,5-dicarboxamide], the IC50 came to 1800 nM on TNKS2 and 1900 nM in assay [1] (setting [2]).
With `CC1CCCN(CCNC(=O)c2[nH]cnc2C(=O)Nc2ccc(NC(=O)c3ccc(F)cc3Cl)cc2)C1` (stereo not drawn) [Example 208, N^4-{4-[(2-chloro-4-fluorobenzoyl)amino]phenyl}-N^5-[2-(3-methylpiperidin-1-yl)ethyl]-1H-imidazole-4,5-dicarboxamide], the 50% inhibitory concentration (IC50) at TNKS2 came to 2 nM; in assay [1] (setting [2]), 30 nM.
For the molecule `CC(C)(CNC(=O)c1[nH]cnc1C(=O)Nc1ccc(NC(=O)c2ccc(F)cc2)cc1)N1CCCCC1` [Example 209, N^4-{4-[(4-fluorobenzoyl)amino]phenyl}-N^5-[2-methyl-2-(piperidin-1-yl)propyl]-1H-imidazole-4,5-dicarboxamide], the IC50 was determined as 460 nM at TNKS2 and 850 nM in assay [1] (setting [2]).
Consider `CC1CCN(CC(C)(C)NC(=O)c2[nH]cnc2C(=O)Nc2ccc(NC(=O)c3ccc(F)cc3Cl)cc2)CC1` [Example 155, N^4-{4-[(2-chloro-4-fluorobenzoyl)amino]phenyl}-N^5-[2-methyl-1-(4-methylpiperidin-1-yl)propan-2-yl]-1H-imidazole-4,5-dicarboxamide], for which the half-maximal inhibitory concentration (IC50) against TNKS2 came to 80 nM; in assay [1] (setting [2]), 660 nM.
Turning to `CNC(=O)c1nc[nH]c1C(=O)Nc1ccc(NC(=O)c2ccccc2Cl)cc1` [Example 27, N^5-{4-[(2-chlorobenzoyl)amino]phenyl}-N^4-methyl-1H-imidazole-4,5-dicarboxamide], the IC50 was determined as 530 nM against TNKS2, 390 nM in assay [1] (setting [2]) and 340 nM in assay [1] (setting [3]).
Take `CC1CCCCN1CCNC(=O)c1[nH]cnc1C(=O)Nc1ccc(NC(=O)c2ccc(F)cc2)cc1` (stereo not drawn) [Example 169, N^4-{4-[(4-fluorobenzoyl)amino]phenyl}-N^5-[2-(2-methylpiperidin-1-yl)ethyl]-1H-imidazole-4,5-dicarboxamide]: the IC50 against TNKS2 turned out to be 180 nM; in assay [1] (setting [2]), 800 nM.

The values above are taken from US9884063B2, “Amido-substituted azole compounds” (Bayer Pharma Aktiengesellschaft, priority 2014, dated 2018).
